Read-outs that look alike come from different tables or passages of the source.
How the values were obtained:
[1] = Hepatocyte stability assay, human; type: in vitro ADME; conditions: human, hepatocytes, T½
From the text: (§1) Defrosted cryo-preserved hepatocytes (viability>70%) were used to determine the metabolic stability of a compound via calculation of intrinsic clearance (CIint; a measure of the removal of a compound from the liver in the absence of blood flow and cell binding). Clearance data are particularly important for in vitro work as they can be used in combination with in vivo data to predict the half-life and oral bioavailability of a drug.
(§2) The metabolic stability in hepatocytes assay involved a time-dependent reaction using both positive and negative controls. The cells must be pre-incubated at 37° C. then spiked with test compound (and positive control); samples taken at pre-determined time intervals were analysed to monitor the change in concentration of the initial drug compound over 60 minutes. A buffer incubation reaction (with no hepatocytes present) acted as a negative control and two cocktail solutions, containing compounds with known high and low clearance values (verapamil/7-hydroxycoumarin and propranolol/diltiazem), acted as positive controls. • 1. The assay was run with a cell concentration of 0.5×10^6 cells/mL in Leibovitz buffer. • 2. All compounds and controls were run in duplicate. • 3. Compound concentration was 10 μM. • 4. All compounds and controls were incubated with both cells and buffer to show turnover is due to hepatic metabolism. • 5. All wells on the incubation plate had 326.7 μL of either cells or buffer added. • 6. Prior to assay, cell and buffer-only incubation plates were preincubated for 10 mins at 37° C. • 7. The assay was initiated by adding compounds, 3.3 μL of 1 mM in 10% DMSO-90% Buffer; final DMSO concentration is 0.1%. • 8. Samples were taken at regular timepoints (0, 5, 10, 20, 40, 60 min) until 60 mins. • 9. Sample volume was 40 μL and added to 160 μL of crash solvent (acetonitrile with internal standard) and stored on ice. • 10. At the end of the assay, the crash plates were centrifuged at 3500 rpm for 20 mins at 4° C. • 11. 80 μL of clear supernatant was removed and mixed with 80 μL of deionised water before being analysed by LC-MS/MS.
(§3) Raw LC-MS/MS data were exported to, and analysed in, Microsoft Excel for determination of intrinsic clearance. The percentage remaining of a compound was monitored using the peak area of the initial concentration as 100%. Intrinsic clearance and half-life values were calculated using a graph of the natural log of percentage remaining versus the time of reaction in minutes.
(§4) 4-Octyl itaconate was included as a comparator compound.

[2] = test system: cryo-preserved hepatocytes; assay: Hepatocyte stability assay, human; type: in vitro ADME; conditions: human, hepatocytes
From the text: as §1, §2, §3, §4

[3] = Hepatocyte stability assay, mouse; type: in vitro ADME; conditions: mouse, hepatocytes, T½
From the text: as §1, §2, §3, §4

[4] = test system: cryo-preserved hepatocytes; assay: Hepatocyte stability assay, mouse; type: in vitro ADME; conditions: mouse, hepatocytes
From the text: as §1, §2, §3, §4

IL-6 = assay: THP-1 AlphaLISA IL-6 cytokine assay (differentiated THP-1 cells); type: cell-based; conditions: Homo sapiens, THP-1, differentiated THP-1 cells, LPS 24 hr then Nigericin 1 hour; read-out: IL-6 (IC50)
Method: (§5) Measuring Inhibitory Effects on IL-1V Cytokine and IL-6 Output from THP-1s
(§6) The cytokine inhibition profiles of compounds of formula (I) were determined in a differentiated THP-1 cell assay. All assays were performed in RPMI-1640 growth medium (Gibco), supplemented with 10% fetal bovine serum (FBS; Gibco), 1% penicillin-streptomycin and 1% sodium pyruvate unless specified otherwise. The IL-1β and IL-6 cytokine inhibition assays were run in a background of differentiated THP-1 cells as described below. All reagents described were from Sigma-Aldrich unless specified otherwise. Compounds were prepared as 10 mM DMSO stocks.
(§7) THP-1 cells were expanded as a suspension up to 80% confluence in appropriate growth medium. Cells were harvested, suspended, and treated with an appropriate concentration of phorbol 12-myristate 13-acetate (PMA) over a 72 hr period (37° C./5% CO2).
(§8) Following 72 hrs of THP-1 cell incubation, cellular medium was removed and replaced with fresh growth media containing 1% of FBS. Working concentrations of compounds were prepared separately in 10% FBS treated growth medium and pre-incubated with the cells for 30 minutes (37° C./5% CO2). Following the 30 minute compound pre-incubation, THP-1s were treated with an appropriate concentration of LPS and the THP-1s were subsequently incubated for a 24 hr period (37° C./5% CO2). An appropriate final concentration of Nigericin was then dispensed into the THP-1 plates and incubated for 1 hour (37° C./5% CO2) before THP-1 supernatants were harvested and collected in separate polypropylene 96-well holding plates.
(§9) Reagents from each of the IL-1β and IL-6 commercial kits (Perkin Elmer) were prepared and run according to the manufacturer's instructions. Subsequently, fluorescence signal detection in a microplate reader was measured (EnVision® Multilabel Reader, Perkin Elmer).
(§10) Percentage inhibition was calculated per cytokine by normalising the sample data to the high and low controls used within each plate (+/−LPS respectively).
(§11) Dimethyl itaconate and 4-octyl itaconate were included as comparator compounds.

IL-1β = assay: THP-1 AlphaLISA IL-1β cytokine assay (differentiated THP-1 cells); type: cell-based; conditions: Homo sapiens, THP-1, differentiated THP-1 cells
Method: as §5, §6, §7, §8, §9, §10, §11

[5] = test system: NRF2 (nuclear factor erythroid 2-related factor 2); assay: NRF2 +/-GSH activation assay (DiscoverX PathHunter NRF2 translocation kit, U2OS cells); type: cell-based; conditions: Homo sapiens; for Emax: U2OS, normalised to dimethyl fumarate high control; for EC50: U2OS PathHunter cells, 6 hours
[6] = LPS 24 hr then Nigericin 1 hour, read-out: IL-1β (IC50)
[7] = +GSH, read-out: NRF2 activation Emax, +GSH
[8] = −GSH, read-out: NRF2 activation Emax, −GSH
[9] = +GSH, read-out: NRF2 activation EC50, +GSH
[10] = −GSH, read-out: NRF2 activation EC50, −GSH

| Compound | half-life at 10 μM [1] [h] | Clint [2] [μL min^−1 10^−6 cells] | half-life at 10 μM [3] [h] | Clint [4] [μL min^−1 10^−6 cells] | IC50 (IL-6) [µM] | IC50 (IL-1β; [6]) [µM] | IC50 (IL-1β; footnote a: data from repeated experiments, read-out: IL-1β (IC50), data from repeated experiments) [µM] | Emax [5, 7] [%] | Emax [5, 8] [%] | EC50 [5, 9] [µM] | EC50 [5, 10] [µM] | half-life at 10 μM ([1]; data from repeated experiments) [h] | Clint, data from repeated experiments [2] | half-life at 10 μM ([3]; data from repeated experiments) [h] | Clint, data from repeated experiments [4] |
| --- | --- | --- | --- | --- | --- | --- | --- | --- | --- | --- | --- | --- | --- | --- | --- |
| C=C(CC(=O)N[C@@H](C)c1ccc(C(F)(F)F)c(F)c1)C(=O)O [Example 19, (S)-4-((1-(3-fluoro-4-(trifluoromethyl)phenyl)ethyl)amino)-2-methylene-4-oxobutanoic acid] | 7.28 | 4 | 6.7 | 4 | > 31.6 | 8.8 |  |  |  |  |  |  |  |  |  |
| C=C(CC(=O)N[C@@H](C)c1ccc(Br)cc1)C(=O)O [Example 16, (S)-4-((1-(4-bromophenyl)ethyl)amino)-2-methylene-4-oxobutanoic acid] | 4.68 | 6 | 4.1 | 7 | > 56.2 | 3.8 | 4.9 |  |  |  |  |  |  |  |  |
| C=C(C(=O)O)C(C)(C)C(=O)N[C@@H](C)c1ccc(C(F)(F)F)cc1 [Example 50, (S)-3,3-dimethyl-2-methylene-4-oxo-4-((1-(4-(trifluoromethyl)phenyl)ethyl)amino)butanoic acid] | > 7.67 | <3 | 1.73 | 13 | > 100 | 1.1 |  |  |  |  |  |  |  |  |  |
| C=C(CC(=O)NC(c1ccc(C(F)(F)F)cc1)C1CC1)C(=O)O (stereo not shown) [Example 10, 4-((cyclopropyl(4-(trifluoromethyl)phenyl)methyl)amino)-2-methylene-4-oxobutanoic acid] | > 7.67 | <3 | > 7.67 | <3 | > 100 | 16.6 |  |  |  |  |  |  |  |  |  |
| C=C(CC(=O)NC1(c2ccc(C(F)(F)F)cc2)CCCC1)C(=O)O [Example 14, 2-methylene-4-oxo-4-((1-(4-(trifluoromethyl)phenyl)cyclopentyl)amino) butanoic acid] | > 7.67 | <3 | 6.48 | 4 | > 100 | 58.3 |  |  |  |  |  |  |  |  |  |
| CC(C)C/C=C(\CC(=O)N[C@@H](C)c1ccc(C(F)(F)F)cc1)C(=O)O [Example 45, (S,E)-5-methyl-2-(2-oxo-2-((1-(4-(trifluoromethyl)phenyl)ethyl)amino)ethyl)hex-2-enoic acid] | 3.83 | 8 | 0.793 | 30 | > 31.6 | 2.1 |  |  |  |  |  |  |  |  |  |
| C=C(CC(=O)NC1(c2ccc(C(F)(F)F)cn2)CCC1)C(=O)O [Example 39, 2-methylene-4-oxo-4-((1-(5-(trifluoromethyl)pyridin-2-yl)cyclobutyl)amino) butanoic acid] | > 7.67 | <3 | > 7.67 | <3 | > 100 | 15.4 |  |  |  |  |  |  |  |  |  |
| C[C@H](NC(=O)C/C(=C\c1ccccc1)C(=O)O)c1ccc(C(F)(F)F)cc1 [Example 47, (S,E)-2-benzylidene-4-oxo-4-((1-(4-(trifluoromethyl)phenyl)ethyl)amino)butanoic acid] | > 7.67 | <3 | 2.2 | 12 | > 100 | > 100 |  |  |  |  |  |  |  |  |  |
| CC/C=C(\CC(=O)N[C@@H](C)c1ccc(C(F)(F)F)cc1)C(=O)O [Example 43, (S,E)-2-(2-oxo-2-((1-(4-(trifluoromethyl)phenyl)ethyl)amino)ethyl)pent-2-enoic acid] | > 7.67 | <3 | 2.72 | 9 |  | 2.1 |  |  |  |  |  |  |  |  |  |
| CC(C)/C=C(\CC(=O)N[C@@H](C)c1ccc(C(F)(F)F)cc1)C(=O)O [Example 44, (S,E)-4-methyl-2-(2-oxo-2-((1-(4-(trifluoromethyl)phenyl)ethyl)amino)ethyl)pent-2-enoic acid] | > 7.67 | <3 | 3.98 | 6 |  | 4.2 |  |  |  |  |  |  |  |  |  |
| C=C(CC(=O)N[C@@H](C)c1ccc(C(F)(F)F)cn1)C(=O)OC1CCN(C)CC1 [Example 32, 1-methylpiperidin-4-yl (S)-2-methylene-4-oxo-4-((1-(5-(trifluoromethyl)pyridin-2-yl)ethyl)amino)butanoate] | 2.05 | 12 | 0.333 | 87 |  | 8.9 |  | 12 | 58 | > 100 | 46.2 |  |  |  |  |
| C=C(CC(=O)NCc1ccc(Cl)cc1)C(=O)OC1CCN(S(C)(=O)=O)CC1 [Example 1, 1-(methylsulfonyl)piperidin-4-yl 4-((4-chlorobenzyl)amino)-2-methylene-4-oxobutanoate] | 1.95 | 12 | 1.63 | 31 |  | 12.3 |  | 19 | 63 | > 100 | 22.3 | 0.783 | 31ª μL min^−1 10^−6 cells | 0.183 | 133 μL min^−1 10^−6 cells |
| C=C(CC(=O)NC1CCCCCCC1)C(=O)OC1CCN(S(C)(=O)=O)CC1 [Example 2, 1-(methylsulfonyl)piperidin-4-yl 4-(cyclooctylamino)-2-methylene-4-oxobutanoate] | 2 | 14 | 0.983 | 119 |  | 8.5 |  | 90 | 127 | 41.9 | 24.9 | 1.28 | 21ª μL min^−1 10^−6 cells | 0.15 | 156ª μL min^−1 10^−6 cells |

From patent publication US20240245691A1 (Sitryx Therapeutics Limited, priority 2021, published 2024)
